Reference: patent publication US9695219B2, “Polypeptide having antibacterial activity and angiogenesis-inducing activity and wound-healing drug containing said polypeptide” (priority 2009, dated 2017)
Where a SMILES comes first, the peptide text is derived from it. [ ]: non-standard residue; d: D form.

How the values were obtained:
Fusarium solani = type: cell-based; conditions: 37° C. for 20 hours; tested twice, first/second value where not matched
Method: (§1) Further, with respect to not only the above-described strains but also various other strains, the “minimum inhibitory concentration (MIC)” was measured as follows. MIC is the lowest concentration of an agent that may inhibit the growth of a bacterium. MIC is used as a parameter for the efficacy of an antibacterial agent, for the strength of bacterial sensitivity, or the like. The bacteria can grow (proliferate) when the concentration is not higher than MIC, and cannot grow when the concentration is higher than MIC. Its measurement is carried out according to a method defined as a standard method by Japanese Society of Chemotherapy or CLINICAL AND LABORATORY […] (CLSI), but, in this Example, its measurement was carried out by a broth microdilution method in accordance with “M100-S17/M7-A7” (Performance Standards for Antimicrobial Susceptibility Testing; Seventeenth Informational Supplement, Vol. 27 No. 1) published by CLSI on January, 2007. That is, sensitivity test of agents was carried out using a microtiter plate or test tubes.
(§2) The bacteria were cultured in liquid media for 4 to 6 hours, and thereafter absorbances at A600 were measured. Bacterial suspensions were diluted with Mueller-Hinton broth (MHB) according to McFarland #0.5. Each strain was added so as to attain about 10^5 CFU/ml (final concentration). Each peptide was prepared to an optional concentration, and the solutions were serially diluted from the concentration. The polypeptide at each concentration stage was added to a microplate or test tubes, and the bacterial suspension was added thereto. Chloramphenicol, amphotericin B, ciprofloxacin, meropenem (MEPM), ciprofloxacin (CPFX), tobramycin (TOB) and oxacillin (OX) were used as positive controls. The plate was incubated at 37° C. for 20 hours, and the lowest concentration where bacterial growth was inhibited was regarded as the minimum inhibitory concentration.

Trichophyton rubrum = type: cell-based; conditions: 37° C. for 20 hours; tested twice, first/second value where not matched
Method: as §1, §2

[1] = tested on: Pseudomonas aeruginosa (clinical strain 6); assay: MIC measurement, broth microdilution; type: cell-based; conditions: 37° C. for 20 hours; tested twice, first/second value where not matched
Escherichia coli = assay: MIC measurement, broth microdilution; type: cell-based; conditions: 37° C. for 20 hours; tested twice, first/second value where not matched
Method: as §1, §2

[2] = tested on: Staphylococcus epidermidis; assay: MIC measurement, broth microdilution; type: cell-based; conditions: 37° C. for 20 hours; tested twice, first/second value where not matched
Method: as §1, §2

[3] = tested on: human vascular endothelial cells and fibroblast cells; assay: Lumen formation test, areas of formed lumina (Angiogenesis Kit KZ-1000); type: cell-based; conditions: 0.5, 2.5 and 10 μg/mL, Day 11 of culture
Method: Then, in order to examine the angiogenesis activity of these, lumen formation by the polypeptides was evaluated using an angiogenesis kit available from KURABO […] LTD. (Product No.: KZ-1000). Vascular endothelial growth factor (VEGF) as a positive control, and polypeptide-free, unstimulated group as a negative control, were used.
Using a special medium for angiogenesis which was attached to the kit, each polypeptide was prepared such that the concentration thereof was respectively 0.5, 2.5 and 10 μg/mL. To a 24-well plate in which cells were plated (the cells were those obtained by co-culturing human vascular endothelial cells and fibroblast cells at an optimum concentration) which was attached to the kit, the special medium for angiogenesis containing each polypeptide was added, and the cells were cultured at 37° C. under 5% CO2. The medium was replaced with a medium containing the same additive on Day 4, Day 7 and Day 9 of culture. […]
Each of the obtained images was quantified using an angiogenesis quantification software. The areas of formed lumina observed in each visual field were measured on the basis of the scale of an angiogenesis quantification software available from KURABO […] […] (angiogenesis quantification software Ver 1.0), and evaluated on the basis of the ratio of the areas of polypeptide-containing groups relative to the area of the negative control group.

[4] = Stability in rat serum (HPLC); type: in vitro ADME; conditions: 37° C.
Method: The stability of the polypeptides in serum was evaluated. In human serum (purchased from KAC Co., Ltd.), or in rat serum obtained by collecting blood from a rat, then leaving the collected blood to stand at room temperature followed by centrifugation, each of the peptides was dissolved so as to attain a final concentration of 500 μg/mL, and the obtained solutions were left to stand at 37° C. After leaving to stand for 3 min or 10 min, these solutions were subjected to HPLC chromatogram analysis to detect peaks of the decomposition products, and calculate the ratio of the concentration of the peptides which remained in the solutions relative to the starting concentration. In addition, the half-lives of the peptides in serum were also calculated.

cut-wound model, SD rats = assay: Evaluation of skin tissue in cut wound healing (HE staining); type: in vivo, rat; conditions: 10 μg dropwise once a day until suture removal, skin collected Day 6
Method: A cut-wound model was produced using 7-week old male SD rats (Crl:CD), and the change in the skin tissue caused by administering the polypeptides of the present invention was evaluated. A cut wound of 30 to 36 mm was made on the back of the rats using a safety razor, and sutured at 3 points equally spaced (Day 0). Onto the suture site, 50 μL of each of the test substances which were respectively adjusted to the concentration of 200 μg/mL was added dropwise (the added amount was 10 μg). Each test substance was administered dropwise once a day till the day when the sutures were removed. On Day 3 after the suturing, the sutures were removed; and, on Day 6, the skin tissue in the cut wound site was collected to evaluate the skin by HE staining

CC[C@H](C)[C@H](NC(=O)[C@H](CC(C)C)NC(=O)[C@H](CCCCN)NC(=O)[C@@H](N)CC(C)C)C(=O)N[C@@H](Cc1ccccc1)C(=O)N[C@@H](CC(C)C)C(=O)N[C@@H](Cc1c[nH]cn1)C(=O)N[C@@H](CCCNC(=N)N)C(=O)N[C@@H](CC(C)C)C(=O)N[C@@H](CCCCN)C(=O)N[C@@H](CCCNC(=N)N)C(=O)N[C@@H](CCSC)C(=O)N[C@@H](CCCNC(=N)N)C(=O)N[C@@H](CCCCN)C(=O)N[C@@H](CCCNC(=N)N)C(=O)N[C@@H](CC(C)C)C(=O)N[C@H](CCCCN)C(=O)N[C@@H](CCCNC(=N)N)C(=O)N[C@@H](CCCCN)C(N)=O [SR-08] (H-LKLIFLHRLKRMRKRL[dK]RK-NH2; N-terminus assumed)
MIC, Fusarium solani (Fusarium solani): 4/8
MIC, Trichophyton rubrum (Trichophyton rubrum): 128/64
MIC, Pseudomonas aeruginosa (clinical strain 6) [1]: 16/32
MIC, Escherichia coli (Escherichia coli): 32/64
MIC, Staphylococcus epidermidis [2]: 8> μg/mL
Ability to form lumen (areas of formed lumina relative to negative control, FIG. 1) [3]: showed an ability to form lumen at the tested concentrations
Ratio of peptide remaining relative to the starting concentration, rat serum, 0 min ([4]; 500 μg/mL, 0 min): 100
remaining at 0.05 h, 500 μg/mL ([4]; rat, rat serum, 3 min, read-out: Ratio of peptide remaining relative to the starting concentration, rat serum, 3 min): 87%
remaining at 10 min, 500 μg/mL ([4]; rat, rat serum, 10 min, read-out: Ratio of peptide remaining relative to the starting concentration, rat serum, 10 min): 86.9%
half-life ([4]; rat, serum, 500 μg/mL): 1 h
Granulation and collagen at cut wound site (HE staining) (cut-wound model, SD rats): increased compared to Saline
Thickening in stratum spinosum epidermidis (HE staining) (cut-wound model, SD rats): less than the saline group
